Assay results: publication PMC7156458, “Synthetic biology based construction of biological activity-related library of fungal decalin-containing diterpenoid pyrones” (Nature Communications, 2020)

Biological target: Aβ42 (Homo sapiens, UniProt P05067)
Assay: Th-T (thioflavin-T) assay of Aβ42 aggregation
Assay type: biochemical
Details: for Th-T assay plate reading, mean of three wells (Supplementary Fig. 47): source data, Ab alone and No Ab as controls

Sequence of Aβ42 (P05067 672-713): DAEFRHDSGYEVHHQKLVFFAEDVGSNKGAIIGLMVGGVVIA

With `C=C1CCC2C(C)(CCC=C(C)C)C(O)CCC2(C)C1Cc1c(OC)oc(C)c(C)c1=O` (stereo not drawn) [Compound 15, viridoxin A hydrolysate] the “Th-T fluorescence, mean of three wells” value (Aβ42 aggregation time course, reading M117) was 3.35, the “Th-T fluorescence, mean of three wells” value (Aβ42 aggregation time course, reading M118) was 3.314 and the “Th-T fluorescence, mean of three wells” value (Aβ42 aggregation time course, reading M119) was 3.3216. The “Th-T fluorescence, mean of three wells” value (Aβ42 aggregation time course, reading M120) was 3.354, the “Th-T fluorescence, mean of three wells” value (Aβ42 aggregation time course, reading M121) was 3.335 and the “Th-T fluorescence, mean of three wells” value (Aβ42 aggregation time course, reading M122) was 3.364. The “Th-T fluorescence, mean of three wells” value (Aβ42 aggregation time course, reading M123) was 3.352, the “Th-T fluorescence, mean of three wells” value (Aβ42 aggregation time course, reading M124) was 3.339 and the “Th-T fluorescence, mean of three wells” value (Aβ42 aggregation time course, reading M125) was 3.327. The “Th-T fluorescence, mean of three wells” value (Aβ42 aggregation time course, reading M126) was 3.362, the “Th-T fluorescence, mean of three wells” value (Aβ42 aggregation time course, reading M127) was 3.317 and the “Th-T fluorescence, mean of three wells” value (Aβ42 aggregation time course, reading M128) was 3.323. The “Th-T fluorescence, mean of three wells” value (Aβ42 aggregation time course, reading M129) was 3.297, the “Th-T fluorescence, mean of three wells” value (Aβ42 aggregation time course, reading M130) was 3.34 and the “Th-T fluorescence, mean of three wells” value (Aβ42 aggregation time course, reading M131) was 3.327. For the same molecule, the “Th-T fluorescence, mean of three wells” value (Aβ42 aggregation time course, reading M132) was 3.341, the “Th-T fluorescence, mean of three wells” value (Aβ42 aggregation time course, reading M133) was 3.324 and the “Th-T fluorescence, mean of three wells” value (Aβ42 aggregation time course, reading M134) was 3.304. The “Th-T fluorescence, mean of three wells” value (Aβ42 aggregation time course, reading M135) was 3.315, the “Th-T fluorescence, mean of three wells” value (Aβ42 aggregation time course, reading M136) was 3.347 and the “Th-T fluorescence, mean of three wells” value (Supplementary Fig. 47, reading M137) was 3.349. The “Th-T fluorescence, mean of three wells” value (Supplementary Fig. 47, reading M138) was 3.365, the “Th-T fluorescence, mean of three wells” value (Supplementary Fig. 47, reading M139) was 3.354 and the “Th-T fluorescence, mean of three wells” value (Supplementary Fig. 47, reading M140) was 3.356. For the same molecule, the “Th-T fluorescence, mean of three wells” value (Supplementary Fig. 47, reading M141) was 3.3427, the “Th-T fluorescence, mean of three wells” value (Supplementary Fig. 47, reading M142) was 3.34 and the “Th-T fluorescence, mean of three wells” value (Supplementary Fig. 47, reading M143) was 3.336. For the same molecule, the “Th-T fluorescence, mean of three wells” value (Supplementary Fig. 47, reading M144) was 3.346, the “Th-T fluorescence, mean of three wells” value (Supplementary Fig. 47, reading M145) was 3.328 and the “Th-T assay plate reading, mean of three wells (Supplementary Fig. 47)” value (“Th-T assay plate reading, mean” below) (measurement M1) was 0.2276. For the same molecule, the “Th-T assay plate reading, mean” value (measurement M2) was 0.2029, the “Th-T assay plate reading, mean” value (measurement M3) was 0.2068 and the “Th-T assay plate reading, mean” value (measurement M4) was 0.2103. The “Th-T assay plate reading, mean” value (measurement M5) was 0.2149, the “Th-T assay plate reading, mean” value (measurement M6) was 0.2264 and the “Th-T assay plate reading, mean” value (measurement M7) was 0.2421. The “Th-T assay plate reading, mean” value (measurement M8) was 0.3484, the “Th-T assay plate reading, mean” value (measurement M9) was 0.4623 and the “Th-T assay plate reading, mean” value (measurement M10) was 0.8904. For the same molecule, the “Th-T assay plate reading, mean” value (measurement M11) was 1.43, the “Th-T assay plate reading, mean” value (measurement M12) was 1.748 and the “Th-T assay plate reading, mean” value (measurement M13) was 1.906. For the same molecule, the “Th-T assay plate reading, mean” value (measurement M14) was 1.9845, the “Th-T assay plate reading, mean” value (measurement M15) was 1.9935 and the “Th-T assay plate reading, mean” value (measurement M16) was 2.026. For the same molecule, the “Th-T fluorescence, mean of three wells” value (reading M17, Supplementary Fig. 47 source data) was 2.072, the “Th-T fluorescence, mean of three wells” value (time-course reading M97, Supplementary Fig. 47 source data) was 3.281 and the “Th-T fluorescence, mean of three wells” value (time-course reading M98, Supplementary Fig. 47 source data) was 3.314. The “Th-T fluorescence, mean of three wells” value (time-course reading M99, Supplementary Fig. 47 source data) was 3.322, the “Th-T fluorescence, mean of three wells” value (time-course reading M100, Supplementary Fig. 47 source data) was 3.3481 and the “Th-T fluorescence, mean of three wells” value (time-course reading M101, Supplementary Fig. 47 source data) was 3.295. For the same molecule, the “Th-T fluorescence, mean of three wells” value (time-course reading M102, Supplementary Fig. 47 source data) was 3.298, the “Th-T fluorescence, mean of three wells” value (time-course reading M103, Supplementary Fig. 47 source data) was 3.312 and the “Th-T fluorescence, mean of three wells” value (time-course reading M104, Supplementary Fig. 47 source data) was 3.321. The “Th-T fluorescence, mean of three wells” value (time-course reading M105, Supplementary Fig. 47 source data) was 3.301, the “Th-T fluorescence, mean of three wells” value (time-course reading M106, Supplementary Fig. 47 source data) was 3.313 and the “Th-T fluorescence, mean of three wells” value (time-course reading M107, Supplementary Fig. 47 source data) was 3.319. The “Th-T fluorescence, mean of three wells” value (time-course reading M108, Supplementary Fig. 47 source data) was 3.3191, the “Th-T fluorescence, mean of three wells” value (time-course reading M109, Supplementary Fig. 47 source data) was 3.3293 and the “Th-T fluorescence, mean of three wells” value (time-course reading M110, Supplementary Fig. 47 source data) was 3.309. The “Th-T fluorescence, mean of three wells” value (time-course reading M111, Supplementary Fig. 47 source data) was 3.3187, the “Th-T fluorescence, mean of three wells” value (time-course reading M112, Supplementary Fig. 47 source data) was 3.343 and the “Th-T fluorescence, mean of three wells” value (time-course reading M113, Supplementary Fig. 47 source data) was 3.364. The “Th-T fluorescence, mean of three wells” value (time-course reading M114, Supplementary Fig. 47 source data) was 3.378, the “Th-T fluorescence, mean of three wells” value (time-course reading M115, Supplementary Fig. 47 source data) was 3.333 and the “Th-T fluorescence, mean of three wells” value (time-course reading M116, Supplementary Fig. 47 source data) was 3.348.
